The NIST ThermoML archive (doi:10.1021/je800664z)

Assay: refractive index (Na D-line) (dimensionless); xn = mol fraction of the nth substance listed
Details: 101 kPa, Liquid, Standard Abbe refractometry

C1COCO1 [1,3-dioxolane] + CC(C)O
refractive index
Details	288.15 K	298.15 K	308.15 K
x1 = 0.05	1.38037	1.37601	1.37126
x1 = 0.1	1.38139	1.37686	1.37207
x1 = 0.15	1.38242	1.37776	1.37295
x1 = 0.2	1.38343	1.37869	1.37388
x1 = 0.25	1.38447	1.37966	1.37483
x1 = 0.3001	1.3855	1.38065	1.37579
x1 = 0.35	1.38655	1.38168	1.3768
x1 = 0.4	1.38763	1.38274	1.37785
x1 = 0.45	1.38875	1.38384	1.37894
x1 = 0.5	1.3899	1.38496	1.38006
x1 = 0.55	1.39107	1.38611	1.38121
x1 = 0.6	1.39227	1.38729	1.38238
x1 = 0.65	1.39348	1.3885	1.38359
x1 = 0.7001	1.39473	1.38975	1.38483
x1 = 0.75	1.396	1.39103	1.38608
x1 = 0.8	1.39731	1.39234	1.38737
x1 = 0.85	1.39862	1.39368	1.38872
x1 = 0.9	1.39993	1.39509	1.39013
x1 = 0.95	1.40123	1.39653	1.39165
x1 = 1	1.40252	1.39795	1.39322

C1COCO1 [1,3-dioxolane] + CC(C)CC(C)(C)C
refractive index
Details	288.15 K	298.15 K	308.15 K
x1 = 0.0501	1.39395	1.38898	1.38381
x1 = 0.1	1.39385	1.38885	1.38367
x1 = 0.15	1.39377	1.38876	1.38361
x1 = 0.2	1.39374	1.38876	1.3836
x1 = 0.25	1.39378	1.38883	1.3837
x1 = 0.3	1.39389	1.38897	1.38387
x1 = 0.35	1.39411	1.3892	1.3841
x1 = 0.4	1.3944	1.38948	1.3844
x1 = 0.45	1.39473	1.38982	1.38476
x1 = 0.5	1.39512	1.39022	1.38517
x1 = 0.55	1.39558	1.39068	1.38563
x1 = 0.6	1.3961	1.3912	1.38614
x1 = 0.65	1.39668	1.39178	1.38672
x1 = 0.7	1.39734	1.39243	1.38739
x1 = 0.75	1.39807	1.39318	1.38814
x1 = 0.8	1.39883	1.39399	1.38895
x1 = 0.85	1.39966	1.39487	1.38987
x1 = 0.9	1.40055	1.39581	1.3909
x1 = 0.95	1.40152	1.39683	1.39199
x1 = 1	1.40252	1.39795	1.39322
